A word on the IC50: it is the concentration that inhibits the measured activity by half.

Bridge positions count the residues as written; N and C are the ends. Square brackets hold non-standard residues; d marks the D form. Peptide text beside a SMILES is read from it. * marks the point of attachment. Phe(3,4,5-F3) = N[C@@H](Cc1cc(F)c(F)c(F)c1)C(=O)O; Bip = N[C@@H](Cc1ccc(-c2ccccc2)cc1)C(=O)O; Phe(3-CN) = N#Cc1cccc(C[C@H](N)C(=O)O)c1; Phe(3-Me) = Cc1cccc(C[C@H](N)C(=O)O)c1; Val(3-OH) = CC(C)(O)[C@H](N)C(=O)O; 4Pal = N[C@@H](Cc1ccncc1)C(=O)O; Aad = N[C@@H](CCCC(=O)O)C(=O)O; Cha = N[C@@H](CC1CCCCC1)C(=O)O; aThr = C[C@H](O)[C@H](N)C(=O)O; Carboxymethyl = O=C(O)C*; Orn = NCCC[C@H](N)C(=O)O; Aun = NCCCCCCCCCCC(=O)O; Dab = NCC[C@H](N)C(=O)O; Nva = CCC[C@H](N)C(=O)O

This assay deals with T1, PD-1/PD-L1 interaction (PE-labeled human PD-L1-Ig binding to Jurkat cell line over-expressing human PD-1) (Homo sapiens, UniProt Q15116).
T1 construct: expressed in transfected cells; host or cells: Jurkat
T1 sequence (Q15116 25-288): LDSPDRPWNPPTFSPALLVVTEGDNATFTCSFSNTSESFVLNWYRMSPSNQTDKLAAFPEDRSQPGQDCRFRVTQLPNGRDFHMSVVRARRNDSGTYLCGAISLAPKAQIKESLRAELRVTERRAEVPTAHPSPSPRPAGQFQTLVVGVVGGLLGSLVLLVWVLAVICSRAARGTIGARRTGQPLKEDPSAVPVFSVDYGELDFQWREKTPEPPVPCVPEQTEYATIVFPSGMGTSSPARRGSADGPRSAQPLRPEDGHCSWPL
As to the kind of experiment: Jurkat-PD-1 Cell Binding High-Content Screening Assay (CBA). The format is cell-based. Particulars: Jurkat cell line over-expressing human PD-1; PE-labeled PD-L1-Ig 20 nM final; read-out: Jurkat hPD1-PDL1 IC50. In outline:
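Human PD-L1-Ig carrying a covalent PE label on its Ig tag serves as the probe, applied at 20 nM final to compound-treated (2 h, 37° C) Jurkat-hPD-1 cells in medium with 10% fetal calf serum. After one hour, fixation and nuclear staining precede high-content image analysis.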
For the compound `Cc1cccc(C[C@@H]2NC(=O)[C@H](CC(=O)O)NC(=O)[C@H](Cc3cccc(C#N)c3)NC(=O)[C@H](Cc3ccncc3)NC(=O)CSC[C@@H](C(=O)N[C@@H](CCN)C(=O)NCCCCCCCCCCC(=O)O)NC(=O)[C@H](CO)NC(=O)[C@H](C(C)(C)O)NC(=O)[C@H](CC3CCCCC3)NC(=O)[C@H](CCN)NC(=O)[C@@H](CC(C)C)NC(=O)[C@H](CCCN)NC(=O)[C@H](Cc3ccc(OCC(=O)O)cc3)NC(=O)[C@H](Cc3ccc(-c4ccccc4)cc3)NC(=O)[C@H](Cc3ccc(OCC(=O)O)cc3)NC2=O)c1` [Compound 2195] ({CH2CO}-[4Pal][Phe(3-CN)]D[Phe(3-Me)]Y(Carboxymethyl)[Bip]Y(Carboxymethyl)[Orn][dL][Dab][Cha][Val(3-OH)]SC[Dab][Aun]-OH; thioether N-14), the half-maximal inhibitory concentration (IC50) is 11.8 nM.

In the case of `Cc1cccc(C[C@@H]2NC(=O)[C@H](CC(=O)O)NC(=O)[C@H](Cc3cccc(C#N)c3)NC(=O)[C@H]([C@@H](C)O)NC(=O)CSC[C@@H](C(=O)N[C@@H](CCN)C(=O)NCCCCCCCCCCC(=O)O)NC(=O)[C@H](CO)NC(=O)[C@H](C(C)(C)O)NC(=O)[C@H](CC3CCCCC3)NC(=O)[C@H](CCN)NC(=O)[C@@H](CC(C)C)NC(=O)[C@H](CCCN)NC(=O)[C@H](Cc3ccc(OCC(=O)O)cc3)NC(=O)[C@H](Cc3ccc(-c4ccccc4)cc3)NC(=O)[C@H](Cc3ccc(OCC(=O)O)cc3)NC2=O)c1` [Compound 2196] ({CH2CO}-T[Phe(3-CN)]D[Phe(3-Me)]Y(Carboxymethyl)[Bip]Y(Carboxymethyl)[Orn][dL][Dab][Cha][Val(3-OH)]SC[Dab][Aun]-OH; thioether N-14), the half-maximal inhibitory concentration (IC50) was found to be 24.4 nM.

On to `COc1ccc(C[C@@H]2NC(=O)[C@H](Cc3ccncc3)NC(=O)CSC[C@@H](C(=O)N[C@@H](CCN)C(=O)NCCCCCCCCCCC(=O)O)NC(=O)[C@H](CO)NC(=O)[C@H](C(C)(C)O)NC(=O)[C@H](CC3CCCCC3)NC(=O)[C@H](CCN)NC(=O)[C@@H](CC(C)C)NC(=O)[C@H](CCCN)NC(=O)[C@H](Cc3ccc(OCC(=O)O)cc3)NC(=O)[C@H](Cc3ccc(-c4ccccc4)cc3)NC(=O)[C@H](Cc3ccc(OCC(=O)O)cc3)NC(=O)[C@H](Cc3cccc(C)c3)NC(=O)[C@H](CC(=O)O)NC2=O)cc1` [Compound 2197] ({CH2CO}-[4Pal]Y(Me)D[Phe(3-Me)]Y(Carboxymethyl)[Bip]Y(Carboxymethyl)[Orn][dL][Dab][Cha][Val(3-OH)]SC[Dab][Aun]-OH; thioether N-14), for which the 50% inhibitory concentration (IC50) was 15.1 nM.

As for `Cc1cccc(C[C@@H]2NC(=O)[C@H](CC(=O)O)NC(=O)[C@H](CCCC(=O)O)NC(=O)[C@H]([C@@H](C)O)NC(=O)CSC[C@@H](C(=O)N[C@@H](CCN)C(=O)NCCCCCCCCCCC(=O)O)NC(=O)[C@H](CO)NC(=O)[C@H](C(C)(C)O)NC(=O)[C@H](CC3CCCCC3)NC(=O)[C@H](CCN)NC(=O)[C@@H](CC(C)C)NC(=O)[C@H](CCCN)NC(=O)[C@H](Cc3ccc(OCC(=O)O)cc3)NC(=O)[C@H](Cc3ccc(-c4ccccc4)cc3)NC(=O)[C@H](Cc3ccc(OCC(=O)O)cc3)NC2=O)c1` [Compound 2198] ({CH2CO}-T[Aad]D[Phe(3-Me)]Y(Carboxymethyl)[Bip]Y(Carboxymethyl)[Orn][dL][Dab][Cha][Val(3-OH)]SC[Dab][Aun]-OH; thioether N-14), the IC50 was found to be 48.1 nM.

`Cc1cccc(C[C@@H]2NC(=O)[C@H](CC(=O)O)NC(=O)[C@H](Cc3ccc(OCC(=O)O)cc3)NC(=O)[C@H](Cc3cc(F)c(F)c(F)c3)NC(=O)CSC[C@@H](C(=O)N[C@@H](CCN)C(=O)NCCCCCCCCCCC(=O)O)NC(=O)[C@H](CO)NC(=O)[C@H](C(C)(C)O)NC(=O)[C@H](CC3CCCCC3)NC(=O)[C@H](CCN)NC(=O)[C@@H](CC(C)C)NC(=O)[C@H](CCCN)NC(=O)[C@H](Cc3ccc(OCC(=O)O)cc3)NC(=O)[C@H](Cc3ccc(-c4ccccc4)cc3)NC(=O)[C@H](Cc3ccc(OCC(=O)O)cc3)NC2=O)c1` [Compound 2199] ({CH2CO}-[Phe(3,4,5-F3)]Y(Carboxymethyl)D[Phe(3-Me)]Y(Carboxymethyl)[Bip]Y(Carboxymethyl)[Orn][dL][Dab][Cha][Val(3-OH)]SC[Dab][Aun]-OH; thioether N-14): the half-maximal inhibitory concentration (IC50) stood at 50 nM.

Take `Cc1cccc(C[C@@H]2NC(=O)[C@H](CC(=O)O)NC(=O)[C@H](Cc3cc(F)c(F)c(F)c3)NC(=O)[C@H](Cc3ccncc3)NC(=O)CSC[C@@H](C(=O)N[C@@H](CCN)C(=O)NCCCCCCCCCCC(=O)O)NC(=O)[C@H](CO)NC(=O)[C@H](C(C)(C)O)NC(=O)[C@H](CC3CCCCC3)NC(=O)[C@H](CCN)NC(=O)[C@@H](CC(C)C)NC(=O)[C@H](CCCN)NC(=O)[C@H](Cc3ccc(OCC(=O)O)cc3)NC(=O)[C@H](Cc3ccc(-c4ccccc4)cc3)NC(=O)[C@H](Cc3ccc(OCC(=O)O)cc3)NC2=O)c1` [Compound 2200] ({CH2CO}-[4Pal][Phe(3,4,5-F3)]D[Phe(3-Me)]Y(Carboxymethyl)[Bip]Y(Carboxymethyl)[Orn][dL][Dab][Cha][Val(3-OH)]SC[Dab][Aun]-OH; thioether N-14): the IC50 worked out at 28.8 nM.

With `CC(C)C[C@H]1NC(=O)[C@H](CCCN)NC(=O)[C@H](Cc2ccc(OCC(=O)O)cc2)NC(=O)[C@H](Cc2ccc(-c3ccccc3)cc2)NC(=O)[C@H](Cc2ccc(OCC(=O)O)cc2)NC(=O)[C@H](Cc2cc(F)c(F)c(F)c2)NC(=O)[C@H](CC(=O)O)NC(=O)[C@H](Cc2ccc(OCC(=O)O)cc2)NC(=O)[C@H](Cc2ccncc2)NC(=O)CSC[C@@H](C(=O)N[C@@H](CCN)C(=O)NCCCCCCCCCCC(=O)O)NC(=O)[C@H](CO)NC(=O)[C@H](C(C)(C)O)NC(=O)[C@H](CC2CCCCC2)NC(=O)[C@H](CCN)NC1=O` [Compound 2201] ({CH2CO}-[4Pal]Y(Carboxymethyl)D[Phe(3,4,5-F3)]Y(Carboxymethyl)[Bip]Y(Carboxymethyl)[Orn][dL][Dab][Cha][Val(3-OH)]SC[Dab][Aun]-OH; thioether N-14), the IC50 turned out to be 78.4 nM.

Turning to `Cc1cccc(C[C@@H]2NC(=O)[C@H](CC(=O)O)NC(=O)[C@H](Cc3ccc(OCC(=O)O)cc3)NC(=O)[C@H](Cc3ccncc3)NC(=O)CSC[C@@H](C(=O)N[C@@H](CCN)C(=O)NCCCCCCCCCCC(=O)O)NC(=O)[C@H](CO)NC(=O)[C@H](C(C)(C)O)NC(=O)[C@H](CC3CCCCC3)NC(=O)[C@H](CCN)NC(=O)[C@@H](CC(C)C)NC(=O)[C@H](CCCN)NC(=O)[C@H](Cc3ccc(OCC(=O)O)cc3)NC(=O)[C@H](Cc3ccc(-c4ccccc4)cc3)NC(=O)[C@H](Cc3cc(F)c(F)c(F)c3)NC2=O)c1` [Compound 2202] ({CH2CO}-[4Pal]Y(Carboxymethyl)D[Phe(3-Me)][Phe(3,4,5-F3)][Bip]Y(Carboxymethyl)[Orn][dL][Dab][Cha][Val(3-OH)]SC[Dab][Aun]-OH; thioether N-14), the concentration for half-maximal inhibition (IC50) worked out at 25.9 nM.

Turning to `Cc1cccc(C[C@@H]2NC(=O)[C@H](CC(=O)O)NC(=O)[C@H](Cc3ccc(OCC(=O)O)cc3)NC(=O)[C@H](Cc3ccncc3)NC(=O)CSC[C@@H](C(=O)N[C@@H](CCN)C(=O)NCCCCCCCCCCC(=O)O)NC(=O)[C@H](CO)NC(=O)[C@H](C(C)(C)O)NC(=O)[C@H](CC3CCCCC3)NC(=O)[C@H](CCN)NC(=O)[C@@H](CC(C)C)NC(=O)[C@H](CCCN)NC(=O)[C@H](Cc3cc(F)c(F)c(F)c3)NC(=O)[C@H](Cc3ccc(-c4ccccc4)cc3)NC(=O)[C@H](Cc3ccc(OCC(=O)O)cc3)NC2=O)c1` [Compound 2203] ({CH2CO}-[4Pal]Y(Carboxymethyl)D[Phe(3-Me)]Y(Carboxymethyl)[Bip][Phe(3,4,5-F3)][Orn][dL][Dab][Cha][Val(3-OH)]SC[Dab][Aun]-OH; thioether N-14), the IC50 amounted to 41.7 nM.

Regarding `CCC[C@@H]1NC(=O)CSC[C@@H](C(=O)N[C@@H](CCN)C(=O)NCCCCCCCCCCC(=O)O)NC(=O)[C@H](CO)NC(=O)[C@H](C(C)(C)O)NC(=O)[C@H](CC2CCCCC2)NC(=O)[C@H](CCN)NC(=O)[C@@H](CC(C)C)NC(=O)[C@H](CCCN)NC(=O)[C@H](Cc2ccc(OCC(=O)O)cc2)NC(=O)[C@H](Cc2ccc(-c3ccccc3)cc2)NC(=O)[C@H](Cc2ccc(OCC(=O)O)cc2)NC(=O)[C@H](Cc2cccc(C)c2)NC(=O)[C@H](CC(=O)O)NC(=O)[C@H](Cc2ccc(OCC(=O)O)cc2)NC1=O` [Compound 2204] ({CH2CO}-[Nva]Y(Carboxymethyl)D[Phe(3-Me)]Y(Carboxymethyl)[Bip]Y(Carboxymethyl)[Orn][dL][Dab][Cha][Val(3-OH)]SC[Dab][Aun]-OH; thioether N-14), the half-maximal inhibitory concentration (IC50) was determined as 10.6 nM.

`Cc1cccc(C[C@@H]2NC(=O)[C@H](CC(=O)O)NC(=O)[C@H](Cc3ccc(OCC(=O)O)cc3)NC(=O)[C@H]([C@H](C)O)NC(=O)CSC[C@@H](C(=O)N[C@@H](CCN)C(=O)NCCCCCCCCCCC(=O)O)NC(=O)[C@H](CO)NC(=O)[C@H](C(C)(C)O)NC(=O)[C@H](CC3CCCCC3)NC(=O)[C@H](CCN)NC(=O)[C@@H](CC(C)C)NC(=O)[C@H](CCCN)NC(=O)[C@H](Cc3ccc(OCC(=O)O)cc3)NC(=O)[C@H](Cc3ccc(-c4ccccc4)cc3)NC(=O)[C@H](Cc3ccc(OCC(=O)O)cc3)NC2=O)c1` [Compound 2205] ({CH2CO}-[aThr]Y(Carboxymethyl)D[Phe(3-Me)]Y(Carboxymethyl)[Bip]Y(Carboxymethyl)[Orn][dL][Dab][Cha][Val(3-OH)]SC[Dab][Aun]-OH; thioether N-14): the IC50 turned out to be 12.5 nM.

On to `COC[C@@H]1NC(=O)CSC[C@@H](C(=O)N[C@@H](CCN)C(=O)NCCCCCCCCCCC(=O)O)NC(=O)[C@H](CO)NC(=O)[C@H](C(C)(C)O)NC(=O)[C@H](CC2CCCCC2)NC(=O)[C@H](CCN)NC(=O)[C@@H](CC(C)C)NC(=O)[C@H](CCCN)NC(=O)[C@H](Cc2ccc(OCC(=O)O)cc2)NC(=O)[C@H](Cc2ccc(-c3ccccc3)cc2)NC(=O)[C@H](Cc2ccc(OCC(=O)O)cc2)NC(=O)[C@H](Cc2cccc(C)c2)NC(=O)[C@H](CC(=O)O)NC(=O)[C@H](Cc2ccc(OCC(=O)O)cc2)NC1=O` [Compound 2207] ({CH2CO}-S(Me)Y(Carboxymethyl)D[Phe(3-Me)]Y(Carboxymethyl)[Bip]Y(Carboxymethyl)[Orn][dL][Dab][Cha][Val(3-OH)]SC[Dab][Aun]-OH; thioether N-14), for which the IC50 is 7.6 nM.
